Reference: patent US20250281461A1 (The Board of Supervisors of Louisiana State University and …, priority 2021, published 2025)

Conditions: mouse, in vivo

COC(=O)Nc1nc2ccc(C(=O)c3ccccc3)cc2[nH]1 [Mebendazole]
no significant changes: serum ALT levels | serum AST levels | serum BUN levels

Cc1ccc(NC(=O)c2ccc(CN3CCN(C)CC3)cc2)cc1Nc1nccc(-c2cccnc2)n1 [Imatinib]
no significant changes: serum ALT levels | serum AST levels | serum BUN levels
